Data reported in article PMC8607797 (Nature chemical biology, 2021).

Legend:
Type in all cases: cell-based
Ephx1 = target: T1, Ephx1 (Mus musculus, UniProt Q9D379); test: live-cell chemoproteomic competition of probe […]
T1 sequence (Q9D379 1-455): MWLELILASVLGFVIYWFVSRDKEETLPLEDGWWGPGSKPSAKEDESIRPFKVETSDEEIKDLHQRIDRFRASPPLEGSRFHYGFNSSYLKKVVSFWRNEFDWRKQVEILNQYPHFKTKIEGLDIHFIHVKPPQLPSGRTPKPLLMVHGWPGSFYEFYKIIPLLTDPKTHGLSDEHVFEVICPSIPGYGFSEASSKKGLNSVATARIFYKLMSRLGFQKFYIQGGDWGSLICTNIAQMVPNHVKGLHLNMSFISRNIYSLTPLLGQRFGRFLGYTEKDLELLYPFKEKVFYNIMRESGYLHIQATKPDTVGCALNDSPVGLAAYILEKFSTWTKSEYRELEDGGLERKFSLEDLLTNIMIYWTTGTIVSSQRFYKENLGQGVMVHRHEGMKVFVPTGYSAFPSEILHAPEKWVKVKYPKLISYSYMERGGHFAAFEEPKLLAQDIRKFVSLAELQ

Cav1 = target: T2, Cav1 (Mus musculus, UniProt P49817); test: live-cell chemoproteomic competition of probe […]
T2 sequence (P49817 2-178): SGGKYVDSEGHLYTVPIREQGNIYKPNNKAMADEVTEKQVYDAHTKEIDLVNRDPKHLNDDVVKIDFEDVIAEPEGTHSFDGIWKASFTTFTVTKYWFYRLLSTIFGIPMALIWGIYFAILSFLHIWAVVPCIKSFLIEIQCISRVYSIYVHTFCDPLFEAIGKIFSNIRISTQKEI

Tmem97 (σ2 receptor) = target: T3, Tmem97 (σ2 receptor) (Mus musculus, UniProt Q8VD00); test: live-cell competition of probe […] labeling, in-gel fluorescence
T3 sequence (Q8VD00 1-176): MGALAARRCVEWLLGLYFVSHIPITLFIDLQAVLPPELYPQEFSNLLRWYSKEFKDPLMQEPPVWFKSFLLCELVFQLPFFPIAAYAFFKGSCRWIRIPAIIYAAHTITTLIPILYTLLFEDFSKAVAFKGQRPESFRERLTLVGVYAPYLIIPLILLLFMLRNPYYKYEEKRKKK

SMILES	live-cell chemoproteomic competition of probe 2 (TMT MS) (Ephx1)	live-cell chemoproteomic competition of probe 2 (TMT MS) (Cav1)	live-cell competition of probe 2 labeling, in-gel fluorescence (Tmem97 (σ2 receptor))
CC(C)CCC[C@](C)(O)[C@H]1CC[C@H]2[C@@H]3CC=C4C[C@@H](O)CC[C@]4(C)[C@H]3CC[C@@]21C [compound 1, 20(S)-hydroxycholesterol]	The most competable proteins encompassed the highly enriched targets Tmem97, Ephx1, and Cav1	The most competable proteins encompassed the highly enriched targets Tmem97, Ephx1, and Cav1	–
CC(C)CCC[C@@](C)(O)[C@H]1CC[C@H]2[C@@H]3CC=C4C[C@@H](O)CC[C@]4(C)[C@H]3CC[C@@]21C [compound 13, 20(R)-hydroxycholesterol]	–	–	50% competition at 50
